Here are results for 8 molecules from patent US8697696B2, “Triazole compounds II” (Roche Palo Alto LLC, priority 2010, dated 2014).

Structures are written as SMILES. pKi: −log10 of the molar value.

This assay deals with human GABA A α5β3γ2 receptor (Homo sapiens (Human), UniProt P18507+P31644). The experiment in a line: [3H]flumazenil competition radioligand binding assay, human GABA A α5β3γ2 receptors in HEK293 cells. To be noted: HEK293 cells expressing human receptors (transiently transfected); 0.5 nM [3H]flumazenil; means of two determinations; read-out: hKi GABA Aα5. How it is done: The ability of compounds present invention to bind to GABA A receptor subtypes was determined by competition for [^3H]flumazenil (85 Ci/mmol; Roche) binding to HEK293 cells expressing rat (stably transfected) or human (transiently transfected) receptors of composition α1β2/3γ2, α2β3γ2, α3β3γ2 and α5β3γ2.
Cell pellets were suspended in Krebs-tris buffer (4.8 mM KCl, 1.2 mM CaCl2, 1.2 mM MgCl2, 120 mM NaCl, 15 mM Tris; pH 7.5; binding assay buffer), homogenized by polytron for ca. 20 sec on ice and centrifuged for 60 min at 4° C. (50000 g; Sorvall, rotor: SM24=20000 rpm). The cell pellets were resuspended in Krebs-tris buffer and homogenized by polytron for ca. 15 sec on ice. Protein was measured (Bradford method, Bio-Rad) and aliquots of 1 mL were prepared and stored at −80° C.
Assays were incubated to equilibrium for 1 hour at 4° C. and harvested onto GF/C uni-filters (Packard) by filtration using a Packard harvester and washing with ice-cold wash buffer (50 mM Tris; pH 7.5). After drying, filter-retained radioactivity was detected by liquid scintillation counting.
Ki values were calculated using Excel-Fit (Microsoft) and are the means of two determinations.
Representative test results, obtained by the above described assay measuring binding affinity to HEK293 cells expressing human (h) receptors, are shown in Table 1 below.

For `Cn1nnc(-c2ccc(F)cc2)c1COc1cc(C(=O)NC2CCOCC2)on1` [Example 1, 3-[5-(4-Fluoro-phenyl)-3-methyl-3H-[1,2,3]triazol-4-ylmethoxyl]isoxazole-5-carboxylic acid (tetrahydro-pyran-4-yl)-amide], the pKi is 7.54.
For the molecule `Cn1nc(OCc2c(-c3ccc(F)cc3)nnn2C)cc1C(=O)NC1CCOCC1` [Example 2, 5-[5-(4-Fluoro-phenyl)-3-methyl-3H-[1,2,3]triazol-4-ylmethoxy]-2-methyl-2H-pyrazole-3-carboxylic acid (tetrahydro-pyran-4-yl)-amide], the pKi is 7.34.
As to `Cc1nnn(-c2ccc(F)cc2)c1COc1cc(C(=O)NC2CCOCC2)n(C)n1` [Example 3, 5-[3-(4-Fluoro-phenyl)-5-methyl-3H-[1,2,3]triazol-4-ylmethoxy]-2-methyl-2H-pyrazole-3-carboxylic acid (tetrahydro-pyran-4-yl)-amide], the pKi was 7.80.
Turning to `Cc1nnn(-c2ccc(F)cc2)c1COc1cc(C(=O)NN2CCOCC2)n(C)n1` [Example 4, 5-[3-(4-Fluoro-phenyl)-5-methyl-3H-[1,2,3]triazol-4-ylmethoxy]-2-methyl-2H-pyrazole-3-carboxylic acid morpholin-4-ylamide], the pKi was 7.65.
As to `Cc1nnn(-c2ccc(F)cc2)c1COc1cc(C(=O)NC2(C)COC2)n(C)n1` [Example 5, 5-[3-(4-Fluoro-phenyl)-5-methyl-3H-[1,2,3]triazol-4-ylmethoxy]-2-methyl-2H-pyrazole-3-carboxylic acid (3-methyl-oxetan-3-yl)-amide], the pKi was 7.36.
For the molecule `Cc1nc(/C=C/c2c(-c3ccc(F)cc3)nnn2C)sc1C(=O)NC(C)C` [Example 6, 2-{(E)-2-[5-(4-Fluoro-phenyl)-3-methyl-3H-[1,2,3]triazol-4-yl]vinyl}-4-methyl-thiazole-5-carboxylic acid isopropylamide], the pKi is 7.95.
`Cc1nc(/C=C/c2c(C)nnn2-c2ccc(F)cc2)sc1C(=O)NC(C)C` [Example 9, 2-{(E)-2-[3-(4-Fluoro-phenyl)-5-methyl-3H-[1,2,3]triazol-4-yl]-vinyl}-4-methyl-thiazole-5-carboxylic acid isopropylamide]: the pKi was 8.17.
For `Cc1nc(/C=C/c2c(-c3ccccn3)nnn2C)sc1C(=O)NC(C)C` [Example 10, 4-Methyl-2-[(E)-2-(3-methyl-5-pyridin-2-yl-3H-[1,2,3]triazol-4-yl)-vinyl]-thiazole-5-carboxylic acid isopropylamide] the value was 7.68.
